Read-outs that look alike come from different tables or passages of the source.
Key:
human PDE5 [1] = biological target: T1, human PDE5 (Homo sapiens, UniProt O76074); settings: reported by Dell'Agli et al.; COS-7 lysate expressing human PDE5; cited from earlier work
T1 construct: host or cells: COS-7 cells (lysate), transfected with human PDE5

[2] = biological target: T2, purified recombinant human PDE5 (Homo sapiens, UniProt O76074); experiment: In vitro PDE5 inhibition assay (GMP production from cGMP, LC-MS); format: biochemical; settings: for IC50: cGMP at 1/10 of Km
T2 construct: purchased Abcam AB125581
Method: To evaluate the nine icariin analogs, the IC50 of each analog, icariin, and sildenafil were measured in an in vitro PDE5 inhibition assay, which measures GMP production from cGMP by purified recombinant human PDE5. Table 1 summarizes the IC50 values obtained for the nine icariin analogs tested. Fold improved potency in Table 1 refers to fold change in IC50 compared to icariin.
[…]. […] PDE5 (purified recombinant human PDE5 purchased from Abcam, Product No. AB125581) was added to start the reaction. The reaction was at room temperature until approximately 10-15% of cGMP in uninhibited control reactions was consumed. Keeping cGMP concentration low and staying within a linear reaction ensured that the reaction remained within Michaelis-Menten model assumptions and that the IC50 could be approximated to the inhibition constant or Ki (as substrate concentration decreases, IC50 value approaches Ki value). The reaction was stopped with the addition of 0.1 M hydrochloric acid. The amount of GMP produced was measured by LC-MS.

BJHTERT+ cells = experiment: Cytotoxicity measured by resazurin, BJHTERT+ (BjH+); format: cell-based; settings: Homo sapiens, 0-10 μM
Method: (§1) A general feature of compounds with promise as viable therapeutics is a lack of toxicity to human cells. To test the icariin analogs for this feature, each analog was assayed against a panel of five human cell lines for cytotoxicity. The five human cell lines represent various tissue types—normalized, untransformed epithelial cells derived from fetal foreskin, neuroblastoma, melanoma, prostate, and lung. A Western blot against PDE5 confirmed that all five cell lines express PDE5 protein (data not shown). Compounds 2-7 were assayed at concentrations ranging from 0-10 μM, ensuring that all compounds remained soluble. […]

H187 cells = experiment: Cytotoxicity measured by resazurin, H187; format: cell-based; settings: Homo sapiens, NCI-H187, 0-10 μM
Method: as §1

[3] = test system: panel of five human cell lines; experiment: Cytotoxicity against a panel of five human cell lines (resazurin); format: cell-based; settings: 2 and 4: two out of five cell lines, 6: three out of five cell lines, 0-10 μM, read-out: IC50 of toxicity in the affected cell lines
Method: as §1

SKMEL-5 cells = experiment: Cytotoxicity measured by resazurin, SKMEL-5; format: cell-based; settings: Homo sapiens, SK-MEL-5, 0-10 μM
Method: as §1

human PDE5 [4] = biological target: T1, human PDE5; settings: competitive inhibitor of human PDE5; previous work; cited from earlier work
[5] = test system: cavernous smooth muscle cells; settings: cavernous smooth muscle cells isolated from icariin-treated mice; cited from earlier work
[6] = purified recombinant human PDE5

Which IC50 (human PDE5 [1]) does the source give for `COc1ccc(-c2oc3c(CC=C(C)C)c(O)cc(O)c3c(=O)c2O[C@@H]2O[C@H](C)[C@@H](O)[C@H](O)[C@@H]2O)cc1` [Compound 1, icariside II] here?
The IC50 was 160 nM.

What does the source list for `COc1ccc(-c2oc3c(CC=C(C)C)c(O[C@@H]4O[C@H](CO)[C@@H](O)[C@H](O)[C@H]4O)cc(O)c3c(=O)c2OCCO)cc1` [Compound 3]?
Ki ([2]; enzyme kinetics, purified recombinant human PDE5): 36 ± 5 nM; IC50 [2, 6]: 83 ± 10 nM

With `COc1ccc(-c2oc3c(CC=C(C)C)c(O[C@@H]4O[C@H](CO)[C@@H](O)[C@H](O)[C@H]4O)cc(O)c3c(=O)c2OCC(C)O)cc1` (stereo partly shown) [Compound 5] as the molecule, how does the IC50 [2, 6] read?
Its IC50 is 500 ± 100 nM.

For `COc1ccc(-c2oc3c(CC=C(C)C)c(O)cc(O)c3c(=O)c2OCCO)cc1` [Compound 6], which IC50 (BJHTERT+ cells) is on record?
Its IC50 is 6.73 µM.

And the IC50 (H187 cells)?
The IC50 was 5.92 µM.

What about the IC50 [3] of the same molecule?
The IC50 was 4000 to 7000 nM.

And the IC50 (SKMEL-5 cells)?
The IC50 was 4.45 µM.

For `COc1ccc(-c2oc3c(CC=C(C)C)c(O)cc(O)c3c(=O)c2O)cc1` [Compound 9, icaritin], which IC50 [2, 6] is on record?
The IC50 was 1800 ± 800 nM.

With `COc1ccc(-c2oc3c(CC=C(C)C)c(O[C@@H]4O[C@H](CO)[C@@H](O)[C@H](O)[C@H]4O)cc(O)c3c(=O)c2O[C@@H]2O[C@@H](C)[C@H](O)[C@@H](O)[C@H]2O)cc1` [icariin] as the molecule, how does the Field improved potency ([2]; fold change in IC50 compared to icariin) read?
The Field improved potency was 1.

And the IC50 [2, 6]?
Its IC50 is 6000 ± 1000 nM.

And the IC50 (human PDE5 [4])?
The IC50 was 1000 to 6000 nM.

What about the cGMP levels [5] of the same molecule?
Its cGMP levels is “increase cGMP levels”.

— patent US11377466B2, “Analogs of the natural product icariin” (Whitehead Institute for Biomedical Research, priority 2018, dated 2022)
